Results on 89 molecules are retold here after a melting point compilation (Tetko et al.; mined from patent text by program, amines drawn as free bases though some values may be those of a salt).

In the case of `NS(=O)(=O)CS(=O)(=O)c1ccc(S(=O)(=O)CCCO)cc1`, the melting point (usually the temperature, or range, at which the solid turns liquid) stood at 200 °C. The figure for `CNCC1(CF)CCN(c2c(F)cc3c(=O)c(C(=O)O)cn(C4CC4)c3c2OC)C1` (centres undefined) is 208 to 210 °C; for `OC(c1cccc(-c2cc3ccccc3[nH]2)c1)c1cc2ccccc2[nH]1` (centres undefined) it is 82 to 85 °C; for `CCOC(CBr)(OCC)C(=O)CBr` it is 40 to 41.5 °C.

In turn, `CC(/C=C/c1c(C)sc(C)c1C)=C(F)\C=C\C(C)=C\CO` yielded a melting point of 106 to 108 °C. As for `CC(C)(CCCCCCCCCCOCc1ccccc1)C(=O)O`, the melting point is 53 to 55 °C.

The molecule `Cc1cc(C)c(-n2ccc3c(OC(C)C)nn(C)c(=O)c32)c(C)c1` displayed a melting point of 108 to 111 °C. In turn, `COC(=O)C1Cc2ccccc2NC1=O` (centres undefined) had a melting point of 165 to 168 °C. With `Nc1nc(-c2c(-c3ccccc3)c3ccccc3[nH]c2=O)cs1` the figure was over 220 °C; with `COC(=O)c1cc(I)ccc1N=C=S`, 60 to 62 °C. As for `COc1ccc(C(=O)C2=C(O)C(=O)N(c3ccc(C)nn3)C2c2ccc(OC(F)(F)F)cc2)cn1` (centres undefined), the melting point fell in the range of 250 to 251 °C. With `COc1cccc2c1nc(C(F)F)n2-c1nc(-c2ccc(N)nc2)nc(N2CCOCC2)n1` the figure was 259 to 261 °C. With `CC1c2ccccc2-c2ccc(F)cc2N1C(=O)c1ccc(O)cc1` (centres undefined) the figure was 134 to 135 °C; with `CN(C)C(=O)c1cc2c(OC[C@@H](O)CN3CCC(c4ccc5ccccc5c4)CC3)cccc2n1C`, 146 to 148 °C; with `COC(=O)c1ccc(NC(C)=O)c2c1OCCC2`, 175 °C. `C=CCc1c(O)ccc2c1CCC(=O)N2CC=C(C)C` registered a melting point of 182 to 184 °C. Molecule `COc1ccc(C(=O)Nc2ccc(C(C)(C)C(N)=O)cc2)cc1` showed a melting point of 234 to 235 °C. `CC(=O)OCC1OC(OC2C(COC(C)=O)OC(OCCBr)C(OC(C)=O)C2OC(C)=O)C(OC(C)=O)C(OC(C)=O)C1OC(C)=O` (centres undefined): the melting point was in the range of 151 to 152 °C. The figure for `CCOC(=O)C(=O)Nc1ccc2ccccc2c1` is 118 to 120 °C; for `NC(=O)C1CCc2ccccc21` (centres undefined) it is 151 to 154 °C; for `COC(=O)c1cc(C(=O)O)cc(C(=O)OC)c1C(=O)OC` it is 143 to 144 °C. The figure for `O=c1[nH]c2cccc(OCCNCc3ccccc3)c2[nH]1` is 132 to 135 °C.

For the molecule `Nc1c([N+](=O)[O-])c(C(F)(F)F)nn1-c1c(Cl)cc(C(F)(F)F)cc1Cl`, the melting point lay in the range of 214 to 215 °C. With `O=C(Nc1ccccc1)C1C(=O)Sc2ccccc21` (centres undefined) the figure was 140 to 142 °C. The figure for `Cc1nc[nH]c1CSCCNC(=NCCc1ccccc1)NC#N` is 135 to 136 °C; for `Cc1oc2c(C)c(C)c(NCc3ccccc3)c(C)c2c1-c1ccc(C(C)C)cc1` it is 94 to 95 °C. With `CC(=O)NCS[C@@H]1CC(=O)N(Cc2ccc(Oc3ccc(F)cc3)nc2)C1` the figure was 94 to 95 °C.

`Cn1c(-c2ccc(Br)cc2)cnc1[C@H](Cc1ccccn1)N(C=O)c1cc2cc(Cl)ccc2o1`: the melting point was in the range of 185 to 188 °C. The figure for `NC(=O)N1CCN(CC(O)COc2ccc(Cl)cc2)CC1` (centres undefined) is 193 to 196 °C; for `CCCCc1ccc(OC)c(-c2csc(NC(=O)c3ccc(C(=O)N4CCC(N5CCC(NC(=O)CC)C5)CC4)cc3)n2)c1` (centres undefined) it is 128 °C; for `COc1ccc(C=CC(=O)c2ccccc2O)cc1` it is 81 to 83 °C. The figure for `N#CC(Cc1ccccc1Cl)C(=O)O` (centres undefined) is 132 to 134 °C; for `COC(=O)[C@H]1CN(c2cc(F)c(N3CCSCC3)c(F)c2)C(=O)O1` it is 99 to 101 °C. The figure for `Cc1cn(C2OC(C)(CO)C(O)C2F)c(=O)[nH]c1=O` (centres undefined) is 80 °C; for `CC(C)c1ccc(Nc2nc(N)nc3c2-c2ccccc2C3)cc1` it is 178 to 180 °C; for `CCOC(=O)CCc1nc(-c2cccc(OC)c2)nc2ccccc12` it is 70 °C. For `CCc1cnc2c(NC(=O)c3c(Cl)cccc3Cl)cccc2c1/C=C/C(N)=O`, the melting point is over 250 °C.

`CCN(CC)CCOc1cc(C(=O)NC(=N)N)c(C)c2ccc(OC)cc12` had a melting point of 135 °C. The figure for `COc1ccc2sc3c(c2c1)SCCNC3=O` is 209 to 210 °C. Regarding `CC(C)c1ccc(C2=C(c3ccc(S(C)(=O)=O)cc3)OC3(CCCC3)C2=O)cc1`, the melting point lay in the range of 139 to 140 °C.

For `FC(F)(F)C1(c2ccccc2)c2ccccc2Oc2ccccc21`, the melting point is 89 to 90 °C. The figure for `O=C(O)Cc1cccc(OCc2ccc3ccccc3n2)c1` is 128 to 130 °C; for `N#Cc1ccccc1Oc1ccc(Cl)cc1` it is 84 to 86 °C; for `COc1ccc(N2CCN(c3ccc(NC(=S)NC(C)(C)CO)cc3)CC2)cc1` it is 222 °C. `CN(C)C(=C[N+](=O)[O-])NCc1cnc(Cl)s1`: the melting point was 101 to 102 °C. With `CCCCCCC1=NOC(=O)/C1=C\Nc1ccc(CCCCCC)cc1` the figure was 88 to 90 °C; with `Cc1cccc(C(=O)N2CC2C#N)n1` (centres undefined), 120 to 122 °C. Consider `CC1(C(=O)c2c[nH]c3ncc(-c4cccc(N5CCOCC5)c4)nc23)CCCCC1`, for which the melting point was in the range of 208 to 209 °C. `CN(CCOc1ccc(C=C2SC(=O)NC2=O)cc1)c1nc2ccccc2o1`: the melting point is 227 to 229 °C. The figure for `CC(C)[C@H]1c2ccc(F)cc2CC[C@]1(O)CC(=O)N(C)CCCc1nc2ccccc2[nH]1` is 132 to 138 °C; for `O=c1ncc(C(F)(F)F)cn1COc1ccc(Cl)cc1` it is 98 °C; for `COC(=O)[C@H](CC(=O)c1ccc2oc3ccccc3c2c1)NC(=O)c1ccccc1` it is 65 to 70 °C. Consider `CCOc1nc2c(c3ccccc13)c1cc(Cl)ccc1n2C`, for which the melting point lay in the range of 161 to 163 °C. With `CC(=O)N[C@@H](Cc1cn(Cc2ccccc2)cn1)C(=O)OCc1ccccc1` the figure was 113 to 114 °C. `CC(C)(C)c1cc(C2=C(c3cc(C(C)(C)C)c(O)c(C(C)(C)C)c3)C2=C(C#N)C#N)cc(C(C)(C)C)c1O` returned a melting point of 280 to 281 °C.

Molecule `CC(C)c1cc(-c2ccc(F)c3ccccc23)nc(NCCNS(C)(=O)=O)n1` showed a melting point of 85 to 91 °C. The figure for `COC(=O)c1ccccc1C(=O)NNC(=S)Nc1ccccc1` is 140 to 142 °C; for `COC[C@H]1CN(C2=Nc3ccccc3Nc3sc(C)cc32)CCN1` it is 87 to 95 °C; for `O=C1c2ccccc2C(=O)c2sc(-c3ccsc3)nc21` it is 258 °C.

In turn, `O=c1c(Cl)c(OCc2ccc(F)cc2F)ccn1Cc1cccc2cnccc12` registered a melting point of 235 to 238 °C. Turning to `CCOC(=O)c1ccc(-c2cccc(CNC=O)n2)cc1`, the melting point turned out to be 120 °C. The figure for `CN(C)c1cccc2c(S(=O)(=O)NCCCCn3cnc4c(N)nc5ccccc5c43)cccc12` is 200 to 201 °C; for `CC(C)(c1ccc(C(C)(C)c2ccc3ccccc3c2O)cc1)c1ccc2ccccc2c1O` it is 245 to 255 °C; for `COC(=O)CCCC#Cc1cc(Cl)ccc1NS(=O)(=O)c1ccc2c(c1)C(C)(C)CCC2(C)C` it is 113 to 115 °C. For the molecule `O=Cc1sccc1Sc1ccccc1`, the melting point lay within 99 to 100 °C. With `O=C(O)CCCCCCCCCCCOc1ccccc1OCCCC(=O)O` the figure was 105 °C; with `Cc1cccc(C2NS(=O)(=O)c3ccccc32)c1` (single isomer, unassigned; (+)), 158 to 159 °C. The figure for `O=C1NC(c2ccccc2)(c2ccccc2)C(=O)N1COP(=O)(OCc1ccccc1)OCc1ccccc1` is 119 to 120 °C. Regarding `Cc1ccc(C)c(OCCCC(=O)O)c1`, the melting point was in the range of 63 to 65 °C. On to `O=C(OC1CCCCCCC1)c1cc2cc(CCl)ccc2oc1=O`, for which the melting point was 169 to 170 °C. The figure for `CCCCCCCNC(=O)Nc1ccccc1C(=O)NC1CCN(C(=O)Oc2ccccc2)CC1` is 142 to 144 °C. `CN(C)C(=O)C(=O)c1c(Cl)n(C)c2ccc(Cl)cc12` gave a melting point of 205 to 206 °C. The figure for `CCCn1cc(C(=O)O)c(=O)c2cnc(N3CCNCC3)nc21` is 259 to 261 °C; for `O=C1OC2(CCCCC2)OC(=O)C12CC2` it is 134 to 135 °C; for `CN(CC(=O)O)C(=O)c1cccc2c(Br)cccc12` it is 205 °C. The figure for `COc1ccc(NC(=O)Nc2cccc(C(F)(F)F)c2)c(O)n1` is 223 to 224 °C; for `CCNC(=O)Nc1ccc2c(=O)n(CCCCN3CC=C(c4ccccc4)CC3)c(=O)[nH]c2c1` it is 220 °C. For `CC(C)(C)NCC(O)COc1ccc(OCC2CC2)cc1` (centres undefined), the melting point lay within 90 to 92 °C. With `CCCCCCCCCCCCCC=Cc1cc(C(=O)O)c[nH]1` the figure was 90 to 96 °C; with `CCOCc1cnc(NC(=O)C(Cc2ccc(F)cc2)c2ccc(S(C)(=O)=O)cc2)cn1` (centres undefined), 99 to 100 °C. Molecule `Cc1cc(-n2cccn2)c2cccc(OCc3c(Cl)ccc(S(=O)(=O)N4CCC[C@H]4C(=O)NCC4CCN(CCCO)CC4)c3Cl)c2n1` gave a melting point of 112 °C. With `CC(=O)Nc1ccc(S(=O)(=O)NC(C)(C)C)cc1` the figure was 200 to 201 °C; with `CC(C)N(CCC(c1ccccc1)c1cc(CO)ccc1OC(=O)c1ccc([N+](=O)[O-])cc1)C(C)C` (centres undefined), 124 °C; with `O=C1CCC2=C(CCc3cccc(F)c32)N1`, 199 °C.

As to `O=C(Nc1ccc2nc(CN3CCCC3)ccc2c1)N1CCC(c2ccccc2)CC1`, the melting point fell in the range of 187 to 189 °C. The figure for `OC1CCN(c2nc(-c3ccccc3)nc3ccccc23)CC1` is 165 to 167 °C; for `CC(=O)CCCCCCCCCCCCC(C)=O` it is 80 °C; for `CNC(=O)c1ccccc1Nc1nc(Nc2cc3c(cc2OC)N(C)C(=O)OCC3)ncc1Cl` it is 235 to 237 °C. With `CCOC(=O)c1cc(C(=O)OC)c(CCN2C(=O)c3ccccc3C2=O)o1` the figure was 122 to 123 °C.
